# Experiments:
# [1] = system: human PCSK9; experiment: Western blot of PCSK9 protein in Huh7 cells co-transfected with miRNA vectors; format: cell-based; conditions: Huh7, selectivity control
# Description: Western blot analysis was conducted to determine whether miR-125a-5p affected the functional activity of […] PC7 in Huh7 cells. A wild-type human PC7-overexpressing vector was co-transfected with pre-miR-125a-5p and pre-miR-224-5p-overexpressing plasmids in Huh7 cells. […] As control, a human PCSK9-overexpressing vector was co-transfected with miR-125a-5p and miR-224-5p vectors in Huh7 cells, whereby these miRNAs had no effect on the expression level of PCSK9 protein (not shown).
# [2] = system: PC7; experiment: PC7 shedding of hTfR1 into the media, Huh7 cells; format: cell-based, human; conditions: Huh7, 2×, 3× and 5× miR-125a-5p vector
# Description: FIGS. 32A-B Western blot (FIG. 32A) and quantitative (FIG. 32B) analysis of human PC7 and TFR1 expression in Huh7 cells, in which miR-125-5p was overexpressed. […] X stands for vector DNA fold for miR-125-5p compared to vector expressing PC7. Because both PC7-V5 and hTfR1-V5 were V5-tagged, the WB using a mAb-V5 reflects the expression of both proteins.
# In the next step, the effect of miR-125a-5p on PC7 function was determined. First, the miR-125a-5p-overexpressing vector and its related mock plasmids were co-transfected with the pIRES vector (Invitrogen, USA), containing the full length of cDNA encoding the PCSK7 mRNA with the complete 3′-UTR in Huh7 cells. […] Thereafter, the impact of miR-125a-5p on the enzymatic function of PC7 was assessed by co-transfecting Huh7 cells with the miR-125a-5p-overexpressing vector, with that coding for the full length of PCSK7, and a plasmid encoding hTfR1 (Guillemot et al., 2013; Durand et al., 2020). […]
# Subsequently, proteins were isolated with an ice-cold RIPA buffer (1×), comprising 50 mM of Tris hydrochloride (pH 8), 150 mM of sodium chloride, 0.1% sodium dodecyl sulfate, 1% Nonidet P40, 0.25% sodium deoxycholate, and a cocktail of protease inhibitors (Roche, Oakville, ON, Canada). […] Subsequently, immunoreactive bands (the signal) were visualized with an enhanced chemiluminescent reaction kit (Bio-Rad, USA) and recorded via chemiluminescence. […]
# [3] = system: PCSK7 mRNA; experiment: PCSK7 mRNA qPCR after miRNA overexpression in HEK293T cells; format: cell-based, human; conditions: 48 hours after transfection
# Description: RNA was isolated from the cells with the TRIzol™ Reagent (Invitrogen, USA) according to the manufacturer's instructions. The RNA samples were treated with RNase-free DNase I (Fermentas, USA) to eliminate any possible DNA contamination. Reverse transcription was performed using the PrimeScript™ First Strand cDNA Synthesis Kit (Takara, Japan) following the manufacturer's protocol. Briefly, one unit of the DNase I enzyme, 1 μL of a buffer, and 1 μg of total RNA were incubated for 30 minutes at 37° C. Then, 1 μL of 50 mM EDTA was added for enzyme inactivation and incubated at 65° C. for 10 minutes. Subsequently, 5 μL of DNase-treated RNA was added to the mix of 0.5 μL of the reverse-transcriptase enzyme, 2 μL of the reverse-transcriptase buffer, and 1 μL of a random hexamer and incubated for 15 minutes at 37° C., followed by 5 seconds at 85° C. for enzyme inactivation. Stem-loop RT-qPCR method was applied for evaluating the expression of miRNAs (Kramer, 2011). […]
# All the reactions were repeated in duplicates. Next, melt curves were analyzed, with the mean threshold cycles used for further analyses. The relative expressions of the miRNAs and PCSK7 to RNU48 small nuclear RNA and/or GAPDH and β2m were calculated, respectively, via the 2-ΔΔCt method. […]
substance,measurement,setting,value
"miR-125a-5p: miRNA targeting PCSK7 3′-UTR and exons 14 and 15, overexpressed from pEGFP-C1 precursor vector (UCCCUGAGACCCUUUAACCUGUGA; miRNA expressed from a pEGFP-C1 precursor vector, further chemistry not given here)",expression level of PCSK9 protein,[1],no effect
same,ability of PC7 to shed hTfR1 into the media,[2],led to a decline
same,reduction in PCSK7 mRNA levels,[3],~25%
